The source of these data is patent publication US11173173B2, “Methods for treating chemoresistant cancer-initiating cells” (UNIVERSITY OF CONNECTICUT, priority 2015, dated 2021).

Assay [1] has as its system BM cells isolated from leukemic Pten:β-cat^Act double mutants (LSCs, HSPCs). In words: In vitro treatment of BM cells from leukemic mice, flow cytometry for LSCs and HSPCs. It counts as cell-based, mouse. Particulars: 11, 33 or 100 nM, 72 hours. The method, then: Doxorubicin, 0105375, and thioguanosine were added to 11, 33 or 100 nM and cultured for 72 hours and analyzed by flow cytometry for LSCs (a) and HSPCs (b) as in FIG. 1. Fold change before and after culture for each population is indicated relative to equivalent vehicle control concentrations.
Bone marrow cells from leukemic mice at 8 weeks post-induction were cultured overnight at 5-20×10^4 cells per well in 96-well U-bottom tissue culture plates (Becton, Dickinson and Company; Cat. No. 353077) in HSC expansion media in low O2 conditions as previously described (Perry, J. M. et al. Cooperation between both Wnt/{beta}-catenin and PTEN/PI3K/Akt signaling promotes primitive hematopoietic stem cell self-renewal and expansion. Genes Dev 25, 1928-1942 (2011)). Doxorubicin (Sigma; D1515), 0105375 ((S)-N-(2-bromobenzyl)-N-(1-hydroxy-3-phenylpropan-2-yl)ethenesulfonamide, University of Kansas CMLD compound), or Thioguanosine was mixed with HSC expansion media and added to the cultures to obtain final concentrations of 11, 33, 100 nM. Equivalent amounts of DMSO alone (vehicle control) were added to parallel cultures for comparison. Half-media changes were performed approximately every 24 hrs. Cultures were analyzed after 72 hrs exposure to the indicated drug.

A further assay relates to pS^552-β-catenin. The assay can be described thus: Anti-pS552-β-catenin staining of populations sorted from treated leukemic mice. It counts as in vivo, mouse. Particulars: [Low]DXR 0.5 mg/kg daily x5; chemotherapy Nelarabine 217 mg/kg + Dexamethasone 10 mg/kg daily x5. The source says:
Open arrows indicate a single treatment cycle for typical clinical use of DXR and targeted use strategy (inner box) drawn to relative scales. Triangles represent DXR treatment drawn proportionally to scale. The cumulative targeted dose (distributed over 5 days consecutively) is indicated to relative scale by the inner triangle (white) (see Methods). c, Representative flow cytometry sorting gates indicating HSPC, LSC and (non-LSC) T-ALL blast cell populations. d, Populations from (c) were sorted from leukemic mice treated as indicated in (a,b) with vehicle, chemotherapy, [Low]DXR or chemotherapy+[Low]DXR and stained with Anti-pS^552-β-catenin antibody. Mean fluorescent intensity (MFI) is indicated for each population and treatment. e, Representative images of pS^552-β-catenin staining of LSCs sorted from mice treated as indicated from (d). Scale bars, 30 μm (inset 3 μm).
Chemotherapy consisted of Nelarabine (Selleck) and Dexamethasone (BioVision) administered daily for 5 days consecutively. 43.4 mg/ml Nelarabine was administered intravenously via the tail vain according to the formula: Body Weight (g)×5=volume to inject (μl), which yielded 217 mg/kg. 2.5 mg/ml Dexamethasone was injected intraperitoneally according to the formula: Body Weight (g)×4=volume to inject (μl), yielding 10 mg/kg. […]
It was next determined whether DXR could inhibit pS^552-β-catenin in vivo. […]

Assay [2] concerns blast cells, LSCs and HSPCs sorted from treated leukemic mice. In words: Limiting-dilution transplants into NSG recipients, CRU frequency (ELDA). It counts as in vivo, mouse. Particulars: for Engrafted: HSPCs. The method, then: Leukemic mice were treated with vehicle, chemotherapy, [Low]DXR or chemotherapy+[Low]DXR as described in FIG. 3a. a-c, At 10 days post-treatment, BM was analyzed by flow cytometry to determine frequency of blast cells (a), LSCs (b) and HSPCs (c). Shown are representative plots. d, Average frequency±SD of each population from a-c (n≥6 per group). e, Limiting-dilution assays to determine CRU frequency were performed on blast cells and LSCs sorted from chemotherapy treated leukemic mice and on HSPCs sorted from [Low]DXR treated mice. Engraftment 1% blast cells) was determined in NSG recipients at 10-12 weeks post-transplant.
Limiting-dilution and tumorigenic assays were performed by establishing leukemic mice as described above and treating as indicated at 8 weeks post-induction. For limiting-dilution transplants, mice were treated with chemotherapy or [Low]DXR and, at 10 days post-treatment (based on first treatment), CD45^Hi CD^3+ c-Kit^− blast cells or Lin^− CD^3+ c-Kit^Mid LSCs were sorted from chemotherapy treated mice and Lin^− Sca-1^+ c-Kit^+ HSPCs were sorted from [Low]DXR treated mice. The indicated numbers of these populations were transplanted into 3.25 Gy irradiated NOD. Cg-Prkdc^scid II2rg^tm1WjI/SzJ (NSG) recipient mice. Recipient bone marrow was analyzed by flow cytometry at 10-12 weeks post-transplant and those with ≥1% CD45^Hi blast cells in bone marrow were considered engrafted. CRU frequency was determined using ELDA analysis.

As for `COc1cccc2c1C(=O)c1c(O)c3c(c(O)c1C2=O)C[C@@](O)(C(=O)CO)C[C@@H]3O[C@H]1C[C@H](N)[C@H](O)[C@H](C)O1` [DXR, doxorubicin], in assay [1], the “HSPCs after culture, relative to vehicle” value is “not HSPCs”. Also, the “LSCs after culture, relative to vehicle” value in assay [1] is given as “significantly reduced LSCs”. In addition, the “pS552-β-catenin level in LSCs sorted from treated mice” value in the assay with pS^552-β-catenin is “reduced in LSCs isolated from mice recently treated with [Low]DXR, although consistent variability yielded no statistical significance”. In addition, in assay [2] (10-12 weeks post-transplant), the “engraftment behaviour of HSPCs sorted from treated mice” value is recorded as “only engrafted at low levels without developing into leukemia”. The Engrafted is recorded as 0 in assay [2] (dose 50, 5 tested); 1 in assay [2] (dose 150, 6 tested); 1 in assay [2] (dose 450, 5 tested).
